Tests used:
Type in all cases: cell-based
[1] = system: human zona pellucida (bonding of human sperm); test: Zona pellucida bonding test in humans (hemizona); conditions: 4 hours at 37° C.
Protocol: For the zona bonding test in humans, the ejaculate of normo-zoospermatocidal donor semen is prepared with use of SpermFertil^(R) glass wool columns (Mello Ltd., FRG). The filtrates were washed and resuspended in HFT-HSA (HFT=human tubal fluid medium according to Quinn et al., supplemented with 10 mg/ml of human serum albumin=HSA).
All human oocytes are obtained from post mortem material. Provision is made at all times to ensure that all legal, ethical and moral guidelines during the entire process are strictly followed.
Unless otherwise indicated, the oocytes are stored in 36.6 mmol of HEPES buffer, pH 7.4, which contains […] MgCl2 and 0.1% PVP at 4° C.
The experiments consist of three incubation drops that contain 10 μl of a standard HTF-HSA medium (see above) and 40 μl of working medium (see below). A specific number of oocytes (for TEM) or hemizonae for the bonding was added to each drop to ensure bonding. For the bonding experiments, a 10 μl sperm drop (50×10^6/ml) was added to each drop, covered with mineral oil, and incubated for 4 hours at 37° C. in 5% CO2. The statistical evaluation was done according to the non-parametric Mann-Whitney two-sample test.
Composition of the working medium: 20 μl of 5 mmol NaH2PO4 (adjusted with phosphoric acid), pH 2.5, plus 20 μl of a specially composed doubly-concentrated HTF-HSA medium, mixed at a ratio of 1:1 (vol/vol).
Composition of the doubly-concentrated HTF-HSA medium: […]

capacitated human sperm = test: Acrosome reaction in capacitated human sperm
[2] = system: mouse zona pellucida (bonding of mouse sperm); test: Zona pellucida bonding test in mice (sperm bonding to isolated zonae); conditions: 20 sperm bonds per zona corresponds to 100%
Protocol: (§1) To recover sperm, a mouse buck is sacrificed, and the two epididymal appendages are removed and transferred into the prepared small Petri dishes [see above under b)]. The tissue parts are cut in the medium, so that the sperm can escape. The sperm are capacitated for one hour in the incubator. After the capacitation time has been completed, the sperm are diluted 1:5 with BWW/0.3 BSA. For counting in the counting chamber, a 1:1 aliquot is diluted with doubly distilled H2O. The desired sperm concentration is 40,000-80,000/0.1 ml.
(§2) The animals are sacrificed 13 hours after the HCG injection, and the tubes are removed and transferred into the prepared small Petri dishes [see above under a)]. Pending further processing, the small dishes are kept at 37° C. on the warming plate. Under the stereomicroscope, the tubes that are in oil are pulled apart. In this case, the cumulus clouds pour out, which then are transferred into the prepared medium drops (two cumulus clouds per drop).
The sperm and oocytes are obtained as described in in vitro fertilization.
The oocytes that are obtained as under I.2.3. are taken up by a finely drawn Pasteur pipette, whose diameter must be somewhat smaller than the diameter of the oocytes, with a few μl of BWW medium. This process is repeated several times and finally causes the zonae pellucida to burst. The cytoplasmic portion of the ooctyes is released, and the isolated zona pellucida is collected for further tests and covered in 0.1 ml of BWW medium with equilibrated oil and kept at 37° C.
The capacitated mouse sperm (see I.2.2) are preincubated for 15 minutes either with a solvent or the desired substance, and then 0.1 ml drops are added to the isolated zonae pellucidae, in such a way that the incubation volume is a total of 0.2 ml (under oil). About 20 zonae pellucidae are studied per drop. The sperm concentration per drop is between 10,000 and 30,000 per μl. Sperm and zonae are incubated for 45 minutes in an incubator (see Description under I.2). After the incubation period, the number of bonded sperm per zona is evaluated under an inverse microscope. The upper limit of the sperm, which have yet to be counted exactly, is 20 sperm per zona pellucida under control conditions.
10,000 Sperm per 0.01 ml with 20 sperm bonds per zonae corresponds to 100%

[3] = system: mouse oocytes and sperm (in vitro fertilization); test: Mouse in vitro fertilization; conditions: 24 hours incubation
Description: I. In Vitro Fertilization
In vitro fertilization represents a test system that makes possible a first review of a contraceptive effect of substances. In this case, the possibility exists of studying whether the contraceptive effect can be attributed primarily to an inhibition of the sperm function(s) or to an inhibiting effect on the oocytes, or to the two above-mentioned effects.
Fertile female mice (CB6F1 strain) about 12 weeks of age; fertile male mice (CB6F1 strain) at least 14 weeks of age.
c) 0.1 ml of BWW/0.3% BSA, corresponding to the concentrations that are to be tested, is mixed with or without substance (control) for the fertilization (prepared after removal of the tubes), covered with equilibrated oil, and kept at 37° C.
10 injection units of PMS/0.1 ml are injected intrapericutaneously into the approximately 12-week-old fertile mice, and 54 hours later, 10 injection units of HCG/0.1 ml are administered.
as §1, §2
0.1 ml of dilute sperma-defined concentration is added to the oocytes that are in the medium drops and is incubated for 24 hours in the incubator at 37° C.
After incubating for 24 hours in the incubator, the following parameters are computed:
The fertilization rate corresponds to the number of divided oocytes per total number of intact oocytes.

sperm = test: Sperm movement parameters

Substance	% Inhibition of Sperm Bonding (Human) to the Human Zona Pellucida ([1]; 1 μg/ml peptide)	% Inhibition of Sperm Bonding (Human) to the Human Zona Pellucida ([1]; 10 μg/ml peptide)	triggering of the acrosome reaction (capacitated human sperm)	% Inhibition of Sperm Bonding (Mouse) to the Mouse Zona Pellucida ([2]; 1 μg/ml peptide)	% Inhibition of Sperm Bonding (Mouse) to the Mouse Zona Pellucida ([2]; 10 μg/ml peptide)	% Inhibition of Mouse In Vitro Fertilization ([3]; 0.1 μg/ml peptide)	% Inhibition of Mouse In Vitro Fertilization ([3]; 1 μg/ml peptide)	% Inhibition of Mouse In Vitro Fertilization ([3]; 10 μg/ml peptide)	influence on parameters of the sperm movement (sperm)	% Inhibition of Sperm Bonding (Mouse) to the Mouse Zona Pellucida ([2]; 0.1 μg/ml peptide)	% Inhibition of Sperm Bonding (Mouse) to the Mouse Zona Pellucida ([2]; 100 μg/ml peptide)
Ac-CGTPSHSRRQPHVMS-NH2 [human ZPC (ZP3) peptide, residues 327-341]	45%	88%	do not trigger the acrosome reaction								
Ac-QRPGHIQFQS-NH2 [Ac-QRPGHIQFQS-NH2 (reverse), reference compound]				0%	0%						
Ac-SQFQIHGPRQ-NH2						0%	63%	5%			
NH2-RYPRQGNVSS-COOH (H-RYPRQGNVSS-OH) [human ZPC (ZP3) peptide, residues 141-150]	76%	77%	do not trigger the acrosome reaction		89%				does not influence any parameters of the sperm movement	71%	91%
NH2-SQFQIHGPRQ-COOH (H-SQFQIHGPRQ-OH)				61%	72%	52%	29%	1%			
NH2-SRNRRHVTEEADVT-COOH (H-SRNRRHVTEEADVT-OH) [human ZPC (ZP3) peptide, residues 348-361]	0%	0%			85%					69%	82%
NH2-TPT..PDQNASPY-COOH (H-TPTPDQNASPY-OH) [human ZPC (ZP3) peptide, residues 220-230]	0%	18%									
NH2-TRRCRTASHPVSASE-COOH (H-TRRCRTASHPVSASE-OH) [human ZPC (ZP3) peptide, residues 410-424]	61%	88%			87%					86%	

Source: patent US6344442B2, “Zona pellucida proteins for contraception” (Schering Aktiengesellschaft, priority 1996, dated 2002)
